Consider 19 molecules from patent US20240254115A1 (ACONDICIONAMIENTO TARRASENSE, priority 2021, published 2024).

The target of one assay is sigma-2 (σ2) site (Homo sapiens, UniProt Q5BJF2). Particulars: background statement; cited from earlier work.
Assay [1] deals with spared nerve injury (SNI) mice. Conditions: SNI mice model of neuropathic pain; cited from earlier work.
The target in a further assay is T1, human σ1 receptor (Homo sapiens, UniProt Q99720).
T1 construct: expressed in transfected cells; host or cells: HEK-293
Briefly: Human σ1 receptor radioligand assay. Particulars: transfected HEK-293 membranes, 5 nM [3H](+)-pentazocine, 37° C. 120 minutes; + may also stand for 1-50% inhibition at 1 or 10 μM; read-out: Binding σ-1 Ki. Summed up:
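Ki was derived from five test concentrations, or % inhibition was measured at a single 1 or 10 μM dose, against 5 nM [3H](+)-pentazocine. Incubation was 120 min at 37° C in 50 mM Tris-HCl pH 8 with 7 μg HEK-293 membranes, and 10 μM haloperidol set non-specific binding. Bound radioactivity was counted after filtration.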

In another assay the target is T2, human σ2/TMEM97 receptor (Homo sapiens, UniProt Q5BJF2).
T2 construct: expressed in transfected cells; host or cells: HEK-293
Kind of assay: Binding assay to human σ2/TMEM97 receptor. Particulars: transfected HEK-293 membranes, 10 nM [3H]-DTG, 25° C. 120 minutes; + may also stand for 1-50% inhibition at 1 or 10 μM; read-out: Binding σ-2 Ki. Summed up:
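Membranes from transfected HEK-293 cells (15 µg) were incubated with 10 nM [3H]-DTG in 50 mM Tris-HCl pH 8.0 for 120 min at 25 °C, with 10 µM haloperidol defining non-specific binding. Filtration and scintillation counting followed. Compounds tested as % inhibition at 1 or 10 µM, or at five concentrations for Ki.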

pKi: −log10 of the molar value.

As a reminder, the pKi is −log10 of the Ki, conventionally taken in molar units.

T1 sequence (Q99720 whole entry): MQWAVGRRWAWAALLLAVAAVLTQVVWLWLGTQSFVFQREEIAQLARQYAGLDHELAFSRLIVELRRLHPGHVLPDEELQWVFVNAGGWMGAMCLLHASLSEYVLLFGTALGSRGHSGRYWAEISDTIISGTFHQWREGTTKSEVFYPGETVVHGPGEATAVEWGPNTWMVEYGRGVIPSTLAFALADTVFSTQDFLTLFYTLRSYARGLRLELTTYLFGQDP
T2 sequence (Q5BJF2 whole entry): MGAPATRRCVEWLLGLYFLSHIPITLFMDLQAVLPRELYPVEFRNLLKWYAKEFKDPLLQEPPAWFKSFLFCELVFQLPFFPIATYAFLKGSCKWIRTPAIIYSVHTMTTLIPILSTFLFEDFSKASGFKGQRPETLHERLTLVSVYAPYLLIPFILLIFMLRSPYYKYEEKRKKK
Chain of sigma-2 (σ2) site (Q5BJF2 whole entry): as above

Regarding (+)-SKF-10047, the “affinity for the sigma-2 (σ2) site” value on sigma-2 (σ2) site is listed as “micromolar affinity”.

Consider UKH-1114, for which, in assay [1], the mechanical hypersensitivity result is “relieved mechanical hypersensitivity”.

In the case of `CC(C)N([C@H]1CCN(Cc2ccc(C#N)cc2)C1)S(=O)(=O)c1ccc(N2CCOCC2)nc1` [Example 50, (S)-N-(1-(4-Cyanobenzyl)pyrrolidin-3-yl)-N-isopropyl-6-morpholinopyridine-3-sulfonamide], the pKi on human σ1 receptor was 6.00 to 6.30; at human σ2/TMEM97 receptor, less than 6.00.

For `CC(C)CCN1CCC2(CC1)CCN(S(=O)(=O)c1ccc(N3CCC(F)(F)CC3)nc1)CC2` [Example 73, 3-((6-(4,4-Difluoropiperidin-1-yl)pyridin-3-yl)sulfonyl)-9-isopentyl-3,9-diazaspiro[5.5]undecane], the values for the pKi on human σ1 receptor and on human σ2/TMEM97 receptor were 6.30 to 7.00 and more than 7.00, respectively.

On to `O=S(=O)(N[C@H]1CCN(Cc2ccccc2)C1)c1ccc(N2CCOCC2)nc1` [Example 1, (S)—N-(1-Benzylpyrrolidin-3-yl)-6-morpholinopyridine-3-sulfonamide], for which the pKi on human σ1 receptor is more than 7.00; on human σ2/TMEM97 receptor, less than 6.00.

On to `O=C1OCCN1c1ccc(S(=O)(=O)N2CCC3(CCN(Cc4ccccc4F)CC3)C2)cn1` [Example 163, 3-(5-((8-(2-Fluorobenzyl)-2,8-diazaspiro[4.5]decan-2-yl)sulfonyl)pyridin-2-yl)oxazolidin-2-one], for which the pKi on human σ1 receptor and at human σ2/TMEM97 receptor was 6.30 to 7.00 throughout.

As for `CN(Cc1ccc(F)cc1)[C@H]1CC[C@H](NS(=O)(=O)c2ccc(N3CCOCC3)nc2)CC1` [Example 28, N-((1r,4r)-4-((4-Fluorobenzyl)(methyl)amino)cyclohexyl)-6-morpholinopyridine-3-sulfonamide], the pKi is less than 6.00 on human σ1 receptor and more than 7.00 at human σ2/TMEM97 receptor.

For `CN(Cc1ccccc1F)[C@H]1CC[C@H](NS(=O)(=O)c2ccc(N3CCC4(CCCO4)CC3)nc2)CC1` [Example 178, N-((1r,4r)-4-((2-Fluorobenz-yl)(methyl)amino)cyclohexyl)-6-(1-oxa-8-azaspiro[4.5]decan-8-yl)pyridine-3-sulfonamide], the pKi at human σ1 receptor was less than 6.00; at human σ2/TMEM97 receptor it was more than 7.00.

`CN(Cc1ccncc1)[C@H]1CC[C@H](NS(=O)(=O)c2ccc(N3CCOCC3)nc2)CC1` [Example 60, N-((1r,4r)-4-(Methyl(pyridin-4-ylmethyl)amino)cyclohexyl)-6-morpholinopyridine-3-sulfonamide]: the pKi at human σ1 receptor is less than 6.00; on human σ2/TMEM97 receptor it was 6.30 to 7.00.

In the case of `CCc1ccc(S(=O)(=O)N2CCC3(CCN(CCC(C)(C)C)CC3)CC2)cn1` [Example 109, 3-(3,3-Dimethylbutyl)-9-((6-ethylpyridin-3-yl)sulfonyl)-3,9-diazaspiro[5.5]undecane], the pKi at human σ1 receptor and at human σ2/TMEM97 receptor was more than 7.00 each time.

Turning to `CC(C)(C)CCN1CCC2(CC1)CCN(S(=O)(=O)c1ccc(N3CCC4(CCCO4)CC3)nc1)C2` [Example 81, 8-(5-((8-(3,3-Dimethylbutyl)-2,8-diazaspiro[4.5]decan-2-yl)sulfonyl)pyridin-2-yl)-1-oxa-8-azaspiro[4.5]decane], the pKi on human σ1 receptor and on human σ2/TMEM97 receptor was more than 7.00 throughout.

As for `CN(CCC(C)(C)C)C1CCN(S(=O)(=O)c2ccc(N3CCC(F)(F)CC3)nc2)CC1` [Example 168, 1-((6-(4,4-Difluoropiperidin-1-yl)pyridin-3-yl)sulfonyl)-N-(3,3-dimethylbutyl)-N-methylpiperidin-4-amine], the negative logarithm of the Ki (pKi) at human σ1 receptor and on human σ2/TMEM97 receptor was more than 7.00 throughout.

For `O=S(=O)(c1ccc(N2CCOCC2)nc1)N1CCC2(CCN(Cc3ccccc3)CC2)CC1` [Example 12, 4-(5-((9-Benzyl-3,9-diazaspiro[5.5]undecan-3-yl)sulfonyl)pyridin-2-yl)morpholine], the pKi on human σ1 receptor is less than 6.00; on human σ2/TMEM97 receptor, more than 7.00.

As to `CC(C)(C)CCN1CCCC2(CCN(S(=O)(=O)c3ccc(-c4ccncc4)nc3)CC2)C1` [Example 115, 9-([2,4′-Bipyridin]-5-ylsulfonyl)-2-(3,3-dimethylbutyl)-2,9-diazaspiro[5.5]undecane], the pKi at human σ1 receptor and on human σ2/TMEM97 receptor was more than 7.00 in each case.

As to `CN(Cc1ccccc1)[C@H]1CC[C@@H](NS(=O)(=O)c2ccc(N3CCOCC3)nc2)CC1` [Example 19, N-((1s,4s)-4-(Benzyl(methyl)amino)cyclohexyl)-6-morpholinopyridine-3-sulfonamide], the pKi was less than 6.00 on human σ1 receptor and more than 7.00 at human σ2/TMEM97 receptor.

With `CC(=O)N(C)c1ccc(S(=O)(=O)N2CCCC3(CCN(CCC(C)(C)C)CC3)C2)cn1` [Example 102, N-(5-((9-(3,3-Dimethylbutyl)-2,9-diazaspiro[5.5]undecan-2-yl)sulfonyl)pyridin-2-yl)-N-methylacetamide], the values for the pKi at human σ1 receptor and on human σ2/TMEM97 receptor were 6.30 to 7.00 and more than 7.00, respectively.

Take `CN(CC1CCOCC1)C1CCN(S(=O)(=O)c2ccc(N3CCC(F)(F)CC3)nc2)CC1` [Example 169, 1-((6-(4,4-Difluoropiperidin-1-yl)pyridin-3-yl)sulfonyl)-N-methyl-N-((tetrahydro-2H-pyran-4-yl)methyl)piperidin-4-amine]: the pKi on human σ1 receptor is 6.30 to 7.00; at human σ2/TMEM97 receptor, more than 7.00.

As to `N#Cc1ccc(CN2CCCC3(CCN(S(=O)(=O)c4ccc(N5CCOC5=O)nc4)CC3)C2)cc1F` [Example 151, 2-Fluoro-4-((9-((6-(2-oxooxazolidin-3-yl)pyridin-3-yl)sulfonyl)-2,9-diazaspiro[5.5]undecan-2-yl)methyl)benzonitrile], the pKi at human σ1 receptor is 6.30 to 7.00; at human σ2/TMEM97 receptor, more than 7.00.

With `O=C1OCCN1c1ccc(S(=O)(=O)N2CCCC3(CCN(Cc4cc(F)ccc4F)CC3)C2)cn1` [Example 160, 3-(5-((9-(2,5-Difluorobenzyl)-2,9-diazaspiro[5.5]undecan-2-yl)sulfonyl)pyridin-2-yl)oxazolidin-2-one], the pKi at human σ1 receptor and at human σ2/TMEM97 receptor was more than 7.00 each time.
